Test results published in US6939550B2, “Stabilized antihistamine syrup” (Schering Corporation, priority 1998, dated 2005).
Like-named read-outs stand apart in the source and are kept apart here.

Legend:
[1] = Test of common antioxidant additives incorporated into the syrup
Protocol: Another test was conducted, wherein common antioxidant additives were incorporated into the syrup. Ideally, the antioxidant will be soluble in the syrup and is safe for use in foods and pharmaceutical preparations.

[2] = Accelerated storage stability of syrups in sealed vials at 55° C., analysis by HPLC; type: physicochemical; settings: severe storage conditions of the test (55° C.)
Protocol: This level can be readily determined by means of an accelerated storage stability test, in which packages of the final product are stored at elevated temperatures above the usual storage temperatures to which the product is expected to be exposed; the present inventors have used temperatures up to 55° C. for this purpose, although such temperatures tend to cause a minor discoloration (darkening) of the syrups, probably due to some carmelization of the contained sucrose. It is expected that most drug degradation reactions will be accelerated by the elevated temperature. At predetermined intervals, some of the packages are opened and analyzed to determine the amount of active ingredients and impurities present in the formulation.
Twenty five mL portions of the two syrups are placed into 50 mL flint glass vials, then sealed with rubber stoppers and aluminum caps. The sealed vials are stored at 55° C. until their removal and analysis by high performance liquid chromatography.
Sample A from the preceding example and similarly prepared syrups which also contain 0.1, 0.25, 0.5 or 0.75 mg/mL of disodium EDTA are packaged as in the prior example, and stored and tested similarly.

## O=C1O[C@H]([C@@H](O)CO)C(O)=C1O [ascorbic acid]
[1]; additive at 0.1 and 1 mg/mL in the syrup
  color change in the product: unacceptable strong color change

## O=C(O)CN(CCN(CC(=O)O)CC(=O)O)CC(=O)O [EDTA, ethylenediaminetetraacetic acid]
[2]
  inhibition of the degradation of loratadine: significant inhibition

## tocopherol
[1]; oil-soluble antioxidants
  solubility in the syrup: not soluble

## Cc1cc(C(C)(C)C)c(O)c(C(C)(C)C)c1 [butylated hydroxytoluene]
[1]
  solubility in the syrup: not soluble

## O=S([O-])O.[Na+] [sodium bisulfite]
[1]; additive in the syrup
  odor imparted to the syrup: pungent, disagreeable odor
